Results as given in PubChem BioAssay AID743476 (The Scripps Research Institute Molecular Screening Center, 2014).
Calls of active or inactive are those of the source. No rule for the calls is given here.

Test system: CCHF-vOTU
Experiment: PubChem AID 743476
Settings: Recombinant CCHFV vOTU, PEP-AMC fluorescence cleavage, with PEP-AMC substrate, stronger effect = higher value

In the case of O=C(c1ccco1)[C@@H]1[C@@H]2C(=O)N(c3ccc(Br)cc3)C(=O)[C@@H]2C2c3ccccc3C=CN21 (stereo partly drawn), the inhibition (Assay 1, at 5.26 µM) was -13.1% (inactive) and the inhibition (Assay 2, at 5.26 µM) was 37.6%.

With COc1ccc2noc3c2c1C(=O)c1ccccc1-3 the inhibition (Assay 1, at 3.08 µM) was 16.5% (inactive), the inhibition (Assay 2, at 3.08 µM) was 15.2% (inactive) and the inhibition (Assay 3, at 6.16 µM) was 64.3%.

With CC1COCC(C)N1C1=C(Cl)C(=O)c2ccccc2C1=O (stereo not drawn) the inhibition (Assay 1, at 5.07 µM) was 0.67% (inactive), the inhibition (Assay 2, at 5.07 µM) was 14% (inactive) and the inhibition (Assay 3, at 10.14 µM) was 17.6% (inactive).

In the case of COc1ccccc1NC(=O)COC(=O)c1ccc([N+](=O)[O-])s1, the inhibition (Assay 1, at 9.94 µM) was -1.05% (inactive), the inhibition (Assay 2, at 9.94 µM) was 9.34% (inactive) and the inhibition (Assay 3, at 19.88 µM) was 20%.

O=C(NC1=C(NC2CCS(=O)(=O)C2)C(=O)c2ccccc2C1=O)c1ccccc1 (stereo not drawn) was tested, and the inhibition (Assay 1, at 3.9 µM) was 4.88% (inactive) and the inhibition (Assay 2, at 3.9 µM) was 22.6%.

In the case of Cc1ccc(NC2=CC(=O)C(=O)c3ccccc32)cc1, the inhibition (Assay 1, at 7.14 µM) was 20% and the inhibition (Assay 2, at 7.14 µM) was 51.9%.

O=C1Cc2ccccc2C(=O)N1CCc1ccccc1 was tested, and the inhibition (Assay 1, at 1.14 µM) was 12.7% (inactive) and the inhibition (Assay 2, at 1.14 µM) was 57.5%.

In the case of O=C(COC(=O)c1ccc([N+](=O)[O-])s1)Nc1ccccc1, the inhibition (Assay 2, at 10.31 µM) was 8.51% (inactive) and the inhibition (Assay 3, at 20.62 µM) was 4.9% (inactive).

Molecule Cc1ccccc1-c1cc2c(nn1)-c1ccccc1C2=O has an inhibition (Assay 1, at 0.46 µM) of 27.6% and an inhibition (Assay 2, at 0.46 µM) of 24.5%.

COc1cc(C(=O)c2nccc3cc(OC)c(OC)cc23)c([N+](=O)[O-])cc1OC was tested, and the inhibition (Assay 1, at 1.05 µM) was 6.05% (inactive), the inhibition (Assay 2, at 1.05 µM) was 15% (inactive) and the inhibition (Assay 3, at 2.1 µM) was 17.8% (inactive).

In the case of NS(=O)(=O)c1ccc(NC(=O)COC(=O)c2ccc([N+](=O)[O-])s2)cc1, the inhibition (Assay 1, at 8.31 µM) was 70.6%, the inhibition (Assay 2, at 8.31 µM) was 24.6% and the inhibition (Assay 3, at 16.62 µM) was 23.1%.

CC1(C)C=C2C(=NN(c3ccccc3)C(N)=C2C#N)CO1 was tested, and the inhibition (Assay 1, at 1.83 µM) was -4.71% (inactive) and the inhibition (Assay 2, at 1.83 µM) was 23.4%.

For CC(=O)c1ccc(NC(=S)Nc2cccc3cnccc23)cc1, the inhibition (Assay 1, at 6.84 µM) was 0.13% (inactive), the inhibition (Assay 2, at 6.84 µM) was 3.01% (inactive) and the inhibition (Assay 3, at 13.68 µM) was 6.6% (inactive).

With COc1cc(Br)c(C(=O)c2nccc3cc(OC)c(OC)cc23)cc1OC the inhibition (Assay 1, at 0.27 µM) was 31.9% and the inhibition (Assay 2, at 0.27 µM) was 25.2%.

Cc1ccc(N2C(=O)[C@@H]3[C@H](C2=O)C2c4ccccc4C=CN2[C@@H]3C(=O)c2ccco2)cc1 (stereo partly drawn) was tested, and the inhibition (Assay 1, at 4.21 µM) was 8.15% (inactive), the inhibition (Assay 2, at 4.21 µM) was 18.6% (inactive) and the inhibition (Assay 3, at 8.42 µM) was 44.7%.

For CN(C1=C(NC(=O)c2ccccc2)C(=O)c2ccccc2C1=O)C1CCS(=O)(=O)C1 (stereo not drawn), the inhibition (Assay 1, at 2.43 µM) was 54.2% and the inhibition (Assay 2, at 2.43 µM) was 22.7%.

In the case of COc1cc(NC(=O)COC(=O)c2ccc([N+](=O)[O-])s2)cc(OC)c1OC, the inhibition (Assay 1, at 6.6 µM) was 7.4% (inactive), the inhibition (Assay 2, at 6.6 µM) was 4.53% (inactive) and the inhibition (Assay 3, at 13.2 µM) was 11.9% (inactive).

O=C(O)CSc1cc(NS(=O)(=O)c2cccc([N+](=O)[O-])c2)c2ccccc2c1O was tested, and the inhibition (Assay 1, at 2.44 µM) was -7.65% (inactive), the inhibition (Assay 2, at 2.44 µM) was 5.22% (inactive) and the inhibition (Assay 3, at 4.88 µM) was 13.1% (inactive).

With O=C(COC(=O)c1ccc([N+](=O)[O-])s1)NCc1ccc(F)cc1 the inhibition (Assay 1, at 8.08 µM) was -23.4% (inactive), the inhibition (Assay 2, at 8.08 µM) was 7.84% (inactive) and the inhibition (Assay 3, at 2.56 µM) was 11.4% (inactive).

For CCOC(=O)C1=C(COC(=O)c2ccc([N+](=O)[O-])s2)NC(=O)NC1C (stereo not drawn), the inhibition (Assay 1, at 7.84 µM) was 5.42% (inactive), the inhibition (Assay 2, at 7.84 µM) was 9.9% (inactive) and the inhibition (Assay 3, at 15.68 µM) was 6% (inactive).

O=c1[nH]c(Nc2ccccc2)cc2cc(Br)ccc12 gave an inhibition (Assay 2, at 1 µM) of 34.1% and an inhibition (Assay 3, at 2 µM) of 42.6%.

CC1CCCC(NC(=O)COC(=O)c2ccc([N+](=O)[O-])s2)C1C (stereo not drawn) was tested, and the inhibition (Assay 1, at 9.22 µM) was 37.2%, the inhibition (Assay 2, at 9.22 µM) was 8.38% (inactive) and the inhibition (Assay 3, at 18.44 µM) was 13.5% (inactive).

CCn1nc(/C=C/c2ccccc2)nc2c(=O)n(C)c(=O)nc1-2 gave an inhibition (Assay 1, at 0.28 µM) of 58.4% and an inhibition (Assay 2, at 0.28 µM) of 91.9%.

In the case of COC1=C(N)C(=O)c2nc(C)ccc2C1=O, the inhibition (Assay 1, at 1.37 µM) was 16.7% (inactive) and the inhibition (Assay 2, at 1.37 µM) was 50.9%.

In the case of O=C(COC(=O)c1ccc([N+](=O)[O-])s1)Nc1ncc(C(F)(F)F)cc1Cl, the inhibition (Assay 1, at 8.84 µM) was 23.2%, the inhibition (Assay 2, at 8.84 µM) was 19.8% (inactive) and the inhibition (Assay 3, at 17.68 µM) was 30.5%.
